# Experiments:
# [1] = biological target: T1, human orexin-2 receptor (Homo sapiens, UniProt O43614); test: OX2R FLIPR Ca flux assay (CHO cells); type: cell-based; conditions: for IC50: CHO cells expressing human orexin-2 receptor, agonist 70 pM Ala-6,12 orexin-A; for Fold Selectivity OX2R vs. OX1R: ratio of OX1R FLIPR to OX2R FLIPR
# T1 construct: expressed in transfected cells; host or cells: CHO cells (G418 selection)
# T1 sequence (O43614 1-444): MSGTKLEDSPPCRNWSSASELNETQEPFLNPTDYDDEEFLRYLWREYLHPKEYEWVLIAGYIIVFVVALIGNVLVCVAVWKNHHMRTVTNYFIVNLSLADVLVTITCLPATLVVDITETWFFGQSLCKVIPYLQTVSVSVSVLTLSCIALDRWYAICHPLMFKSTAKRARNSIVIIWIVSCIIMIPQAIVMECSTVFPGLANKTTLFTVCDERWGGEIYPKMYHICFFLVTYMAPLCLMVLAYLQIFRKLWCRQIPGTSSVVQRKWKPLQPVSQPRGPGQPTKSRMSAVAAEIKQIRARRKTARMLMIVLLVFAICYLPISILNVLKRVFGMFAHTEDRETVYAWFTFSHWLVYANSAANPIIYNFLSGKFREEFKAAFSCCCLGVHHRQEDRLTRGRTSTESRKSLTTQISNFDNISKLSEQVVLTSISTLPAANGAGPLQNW
# Experimental: (§1) The utility of the compounds in accordance with the present invention as orexin receptor OX1R and/or OX2R antagonists may be readily determined without undue experimentation by methodology well known in the art, including the “FLIPR Ca^+ Flux Assay” (Okumura et al., Biochem. Biophys. Res. Comm. 280:976-981, 2001). In a typical experiment the OX1 and OX2 receptor antagonistic activity of the compounds of the present invention was determined in accordance with the following experimental method. For intracellular calcium measurements, Chinese hamster ovary (CHO) cells expressing the rat orexin-1 receptor or the human orexin-2 receptor, are grown in Iscove's modified DMEM containing 2 mM L-glutamine, […], 1% hypoxanthine-thymidine supplement, 100 U/ml penicillin, 100 μg/ml streptomycin and 10% heat-inactivated fetal calf serum (FCS). The cells are seeded at 20,000 cells/well into Becton-Dickinson black 384-well clear bottom sterile plates coated with poly-D-lysine. All reagents were from GIBCO-Invitrogen Corp. The seeded plates are incubated overnight at 37° C. and 5% CO2. Ala-6,12 human orexin-A as the agonist is prepared as a 1 mM stock solution in 1% bovine serum albumin (BSA) and diluted in assay buffer (HBSS containing 20 mM HEPES, 0.1% BSA and 2.5 mM probenecid, pH7.4) for use in the assay at a final concentration of 70 pM. Test compounds are prepared as 10 mM stock solution in DMSO, then diluted in 384-well plates, first in DMSO, then assay buffer. On the day of the assay, cells are washed 3 times with 100 μl assay buffer and then incubated for 60 min (37° C., 5% CO2) in 60 μl assay buffer containing 1 μM Fluo-4AM ester, 0.02% pluronic acid, and 1% BSA. The dye loading solution is then aspirated and cells are washed 3 times with 100 μl assay buffer. 30 μl of that same buffer is left in each well. Within the Fluorescent Imaging Plate Reader (FLIPR, Molecular Devices), test compounds are added to the plate in a volume of 25 μl, incubated for 5 min and finally 25 μl of agonist is added. Fluorescence is measured for each well at 1 second intervals for 5 minutes and the height of each fluorescence peak is compared to the height of the fluorescence peak induced by 70 pM Ala-6,12 orexin-A with buffer in place of antagonist. For each antagonist, IC50 value (the concentration of compound needed to inhibit 50% of the agonist response) is determined. Alternatively, compound potency can be assessed by a radioligand binding assay (described in Bergman et. al. Bioorg. Med. Chem. Lett. 2008, 18, 1425-1430) in which the inhibition constant (Ki) is determined in membranes prepared from CHO cells expressing either the OX1 or OX2 receptor. The intrinsic orexin receptor antagonist activity of a compound which may be used in the present invention may be determined by these assays.
# [2] = biological target: T2, rat orexin-1 receptor (Rattus norvegicus, UniProt P56718); test: OX1R FLIPR Ca flux assay (CHO cells); type: cell-based; conditions: CHO cells expressing rat orexin-1 receptor; agonist 70 pM Ala-6,12 orexin-A
# T2 construct: expressed in transfected cells; host or cells: CHO cells (G418 selection)
# T2 sequence (P56718 1-416): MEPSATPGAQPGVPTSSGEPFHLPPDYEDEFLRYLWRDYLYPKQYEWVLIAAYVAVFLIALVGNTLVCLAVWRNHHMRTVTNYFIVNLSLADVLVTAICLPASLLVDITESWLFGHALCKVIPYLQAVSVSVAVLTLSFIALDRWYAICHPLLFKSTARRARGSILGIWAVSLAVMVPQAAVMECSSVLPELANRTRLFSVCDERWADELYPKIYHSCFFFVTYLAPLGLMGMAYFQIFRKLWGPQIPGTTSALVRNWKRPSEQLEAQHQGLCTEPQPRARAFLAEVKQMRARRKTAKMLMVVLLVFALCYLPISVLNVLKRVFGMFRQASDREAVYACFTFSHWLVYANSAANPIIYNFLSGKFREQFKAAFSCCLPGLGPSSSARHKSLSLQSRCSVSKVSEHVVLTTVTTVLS
# Experimental: as §1
IC50 [1],Fold Selectivity OX2R vs. OX1R [1],IC50 [2],Compound
41 nM,>244 fold,> 10000 nM,"Cc1oc(N2CCCN(C(=O)c3cccnc3OC(C)C)CC2)nc1C(C)(C)O [Example 14, 2-[5-methyl-2-(4-{[2-(1-methylethoxy)pyridin-3-yl]carbonyl}-1,4-diazepan-1-yl)-1,3-oxazol-4-yl]propan-2-ol]"
12 nM,332 fold,3990 nM,"Cc1oc(N2CCCN(C(=O)c3ccccc3OC(F)F)CC2)nc1C(C)(C)O [Example 12, (2-(difluoromethoxy)phenyl)(4-(4-(2-hydroxypropan-2-yl)-5-methyloxazol-2-yl)-1,4-diazepan-1-yl)methanone]"
35 nM,142 fold,4980 nM,"Cc1cc(C)nc(N2CCCN(C(=O)c3ccc(F)cc3-n3nccn3)CC2)n1 [Example 3, 1-(4,6-dimethylpyrimidin-2-yl)-4-{[4-fluoro-2-(2H-1,2,3-triazol-2-yl)phenyl]carbonyl}-1,4-diazepane]"
19 nM,170 fold,3240 nM,"CCOc1ccccc1C(=O)N1CCCN(c2nc(C(C)(C)O)c(C)o2)CC1 [Example 19, 2-(2-{4-[(2-ethoxyphenyl)carbonyl]-1,4-diazepan-1-yl}-5-methyl-1,3-oxazol-4-yl)propan-2-ol]"
28 nM,96 fold,2700 nM,"Cc1cc(C)nc(N2CCCN(C(=O)c3ccccc3-n3nccn3)CC2)n1 [Example 2, (2-(2H-1,2,3-triazol-2-yl)phenyl)(4-(4,6-dimethylpyrimidin-2-yl)-1,4-diazepan-1-yl)methanone]"
36 nM,>277 fold,> 10000 nM,"Cc1cc(C)nc(N2CCCN(C(=O)c3ccccc3OC(F)(F)F)CC2)n1 [Example 10, 1-(4,6-dimethylpyrimidin-2-yl)-4-{[2-(trifluoromethoxy)-phenyl]carbonyl}-1,4-diazepane]"
35 nM,179 fold,6290 nM,"Cc1oc(N2CCCN(C(=O)c3ccccc3-n3cccn3)CC2)nc1C(C)(C)O [Example 20, 2-[5-methyl-2-(4-{[2-(1H-pyrazol-1-yl)phenyl]carbonyl}-1,4-diazepan-1-yl)-1,3-oxazol-4-yl]propan-2-ol]"

# — patent US9732077B2, “Diazepane orexin receptor antagonists” (MERCK SHARP & DOHME CORP., priority 2013, dated 2017)
